# Measurements from publication PMC10893103, “Cyclodextrin-Enabled Enantioselective Complexation Study of Cathinone Analogs” (Molecules, 2024).
# Test: Affinity capillary electrophoresis (ACE), pH 7.4
# Details: 30 mM phosphate buffer pH 7.4, 25 °C, 15 kV
# From the text: To assess the CD complex formation capability of the five cathinone derivatives, we devised a screening ACE method tailored to closely mimic physiological conditions. In a preliminary study, the ACE conditions were optimized regarding the type, pH, and concentration of the background electrolyte, the applied voltage, and the injection parameters. […] In order to avoid high Joule heat generation, sufficiently low voltage should be used; thus, after registering the Ohm plot (I-U plot), it was set to 15 kV. Throughout our ACE measurements, corrections for viscosity and ionic strength were systematically implemented to ensure precise determination of complex stability constants.
# The CE experiments were performed on a HP ^3DCE and on an Agilent 7100 instrument (Agilent Technologies, Waldbronn, Germany) equipped with a photodiode array detector and the Chemstation software for data handling. Untreated fused silica capillaries (50 µm id, 48.5 cm total, 40 cm effective length) were purchased from Agilent. Conditioning of new capillary was conducted by flushing with 1 M NaOH followed by 0.1 M NaOH and water for 30 min each. Prior to all runs, the capillary was preconditioned by rinsing with BGE (2 min). The temperature of the capillary was set to 25 °C. UV detection was performed at 215 nm, and 15–25 kV voltage was applied. Samples were injected hydrodynamically (150 mbar·sec, optimized in the 50–500 mbar·sec range). The CE-pH measurements were carried out applying 25 kV voltage and 200 mbar·sec injection.
# The background electrolyte of the CE-pH measurements contained 25 mM Na2HPO4 and 25 mM Na2B4O7, and the appropriate pH was adjusted with hydrochloric acid. During the ACE measurements, 30 mM phosphate buffer pH 7.4 (30 mM Na2HPO4—NaOH) was used. The running buffer was 20 mM acetic acid adjusting with 1 M Tris the pH to 4.5 during the chiral screening experiments. The BGEs contained CDs at various concentrations (0.25–20 mM) in the ACE experiments and 1-5-10 mM in the chiral method optimization experiments.
# Stock solutions of each cathinone analog (mephedrone, flephedrone, 4-MEC, butylone, and MDPV) were prepared separately in methanol (1 mg/ml), and appropriate dilutions with water were used to prepare sample solutions for the CE-pH titration and for the ACE studies applying DMSO as EOF marker, while their mixture was used during the chiral separation studies.
# The simplest way to determine the mobility is from the migration times (tmax) read from the electropherograms from which the apparent mobility could be calculated, but more accurate mobility values could be obtained by the determination with the Haarhoff–van der Linde (HVL) function based on Equation (2). (2) HVLδ(t;a0,a1,a2,a3δ)=a0/a2a3δ2πexp[−1/2(t−a1/a2)^2]/1/exp(a3δ)−1+1/2[1+erf(t−a1/2a2)] where a0 is the area of the HVL function, a1 is the position of the Gaussian component, a2 is the standard deviation of the Gaussian component, and a3δ is the peak shape distortion. The application of the HVL function is necessary in the case of accurate ACE measurements because, in several cases, the peaks are distorted due to the complex formation, which makes reading the migration times and calculating the mobility more difficult and imprecise.
# The most popular technique for quantifying the analyte–ligand interaction with CE is mobility shift ACE.
Compound,"4-MEC–CD complex stability constant, Kstab/Kstab1 (unresolved or first migrating enantiomer) [M⁻¹]","Flephedrone–CD complex stability constant, Kstab/Kstab1 (unresolved or first migrating enantiomer) [M⁻¹]","MDPV–CD complex stability constant, Kstab2 (second migrating enantiomer)","MDPV–CD complex stability constant, Kstab/Kstab1 (unresolved or first migrating enantiomer) [M⁻¹]","Mephedrone–CD complex stability constant, Kstab/Kstab1 (unresolved or first migrating enantiomer) [M⁻¹]","Flephedrone–CD complex stability constant, Kstab2 (second migrating enantiomer) [M⁻¹]","4-MEC–CD complex stability constant, Kstab2 (second migrating enantiomer) [M⁻¹]","Butylone–CD complex stability constant, Kstab/Kstab1 (unresolved or first migrating enantiomer) [M⁻¹]","Butylone–CD complex stability constant, Kstab2 (second migrating enantiomer) [M⁻¹]","Mephedrone–CD complex stability constant, Kstab2 (second migrating enantiomer) [M⁻¹]"
"OC[C@H]1O[C@@H]2O[C@H]3[C@H](O)[C@@H](O)[C@@H](O[C@H]4[C@H](O)[C@@H](O)[C@@H](O[C@H]5[C@H](O)[C@@H](O)[C@@H](O[C@H]6[C@H](O)[C@@H](O)[C@@H](O[C@H]7[C@H](O)[C@@H](O)[C@@H](O[C@H]8[C@H](O)[C@@H](O)[C@@H](O[C@H]1[C@H](O)[C@H]2O)O[C@@H]8CO)O[C@@H]7CO)O[C@@H]6CO)O[C@@H]5CN1CCCC1)O[C@@H]4CO)O[C@@H]3CO [PYR-β-CD, 6-monodeoxy-6-pyrrolidine-β-CD]",215 ± 30,640 ± 145,430 ± 50 M⁻¹,105 ± 15,115 ± 20,,,,,
"O=C(O)CCSC[C@H]1O[C@@H]2O[C@H]3[C@H](O)[C@@H](O)[C@@H](O[C@H]4[C@H](O)[C@@H](O)[C@@H](O[C@H]5[C@H](O)[C@@H](O)[C@@H](O[C@H]6[C@H](O)[C@@H](O)[C@@H](O[C@H]7[C@H](O)[C@@H](O)[C@@H](O[C@H]1[C@H](O)[C@H]2O)O[C@@H]7CSCCC(=O)O)O[C@@H]6CSCCC(=O)O)O[C@@H]5CSCCC(=O)O)O[C@@H]4CSCCC(=O)O)O[C@@H]3CSCCC(=O)O [SAX, hexakis-(6-deoxy-6-(2-carboxyethyl)thio)-α-CD]",,,,,530 ± 45,,,,,
"O=C(O)CCSC[C@H]1O[C@@H]2O[C@H]3[C@H](O)[C@@H](O)[C@@H](O[C@H]4[C@H](O)[C@@H](O)[C@@H](O[C@H]5[C@H](O)[C@@H](O)[C@@H](O[C@H]6[C@H](O)[C@@H](O)[C@@H](O[C@H]7[C@H](O)[C@@H](O)[C@@H](O[C@H]8[C@H](O)[C@@H](O)[C@@H](O[C@H]1[C@H](O)[C@H]2O)O[C@@H]8CSCCC(=O)O)O[C@@H]7CSCCC(=O)O)O[C@@H]6CSCCC(=O)O)O[C@@H]5CSCCC(=O)O)O[C@@H]4CSCCC(=O)O)O[C@@H]3CSCCC(=O)O [SBX, heptakis-(6-deoxy-6-(2-carboxyethyl)thio)-β-CD]",,575 ± 35,"12,830 ± 900 M^−1",,,610 ± 45,,,,
"O=C(O)CCSC[C@H]1O[C@@H]2O[C@H]3[C@H](O)[C@@H](O)[C@@H](O[C@H]4[C@H](O)[C@@H](O)[C@@H](O[C@H]5[C@H](O)[C@@H](O)[C@@H](O[C@H]6[C@H](O)[C@@H](O)[C@@H](O[C@H]7[C@H](O)[C@@H](O)[C@@H](O[C@H]8[C@H](O)[C@@H](O)[C@@H](O[C@H]9[C@H](O)C(O)[C@@H](O[C@H]1[C@H](O)[C@H]2O)O[C@@H]9CSCCC(=O)O)O[C@@H]8CSCCC(=O)O)O[C@@H]7CSCCC(=O)O)O[C@@H]6CSCCC(=O)O)O[C@@H]5CSCCC(=O)O)O[C@@H]4CSCCC(=O)O)O[C@@H]3CSCCC(=O)O (some centres unmarked) [SGX, octakis(6-deoxy-6-(2-carboxyethyl)thio)-γ-CD]",975 ± 90,315 ± 20,,,825 ± 65,,960 ± 95,,,
"COCC1OC2OC3C(COC)OC(OC4C(COC)OC(OC5C(COC)OC(OC6C(COC)OC(OC7C(COC)OC(OC8C(COC)OC(OC1C(OC)C2OC)C(OC)C8OC)C(OC)C7OC)C(OC)C6OC)C(OC)C5OC)C(OC)C4OC)C(OC)C3OC (stereo not drawn) [TRIME-β-CD, permethylated-β-CD]",60 ± 15,< 10,,40 ± 10,20 ± 3,,,20 ± 2,,
"COC[C@H]1O[C@@H]2O[C@H]3[C@H](OC)[C@@H](OC)[C@@H](O[C@H]4[C@H](OC)[C@@H](OC)[C@@H](O[C@H]5[C@H](OC)[C@@H](OC)[C@@H](O[C@H]6[C@H](OC)[C@@H](OC)[C@@H](O[C@H]7[C@H](OC)[C@@H](OC)[C@@H](O[C@H]8[C@H](OC)[C@@H](OC)[C@@H](O[C@H]9[C@H](OC)[C@@H](OC)[C@@H](O[C@H]1[C@H](OC)[C@H]2OC)O[C@@H]9COC)O[C@@H]8COC)O[C@@H]7COC)O[C@@H]6COC)O[C@@H]5COC)O[C@@H]4COC)O[C@@H]3COC [TRIME-γ-CD, permethylated-γ-CD]",20 ± 4,< 10,,45 ± 14,< 10,,,25 ± 10,,
OC[C@H]1O[C@@H]2O[C@H]3[C@H](O)[C@@H](O)[C@@H](O[C@H]4[C@H](O)[C@@H](O)[C@@H](O[C@H]5[C@H](O)[C@@H](O)[C@@H](O[C@H]6[C@H](O)[C@@H](O)[C@@H](O[C@H]7[C@H](O)[C@@H](O)[C@@H](O[C@H]1[C@H](O)[C@H]2O)O[C@@H]7CO)O[C@@H]6CO)O[C@@H]5CO)O[C@@H]4CO)O[C@@H]3CO [α-CD],30 ± 5,40 ± 4,50 ± 5 M⁻¹,40 ± 6,30 ± 4,,,40 ± 5,,
OC[C@H]1O[C@@H]2O[C@H]3[C@H](O)[C@@H](O)[C@@H](O[C@H]4[C@H](O)[C@@H](O)[C@@H](O[C@H]5[C@H](O)[C@@H](O)[C@@H](O[C@H]6[C@H](O)[C@@H](O)[C@@H](O[C@H]7[C@H](O)[C@@H](O)[C@@H](O[C@H]8[C@H](O)[C@@H](O)[C@@H](O[C@H]9[C@H](O)[C@@H](O)[C@@H](O[C@H]1[C@H](O)[C@H]2O)O[C@@H]9CO)O[C@@H]8CO)O[C@@H]7CO)O[C@@H]6CO)O[C@@H]5CO)O[C@@H]4CO)O[C@@H]3CO [γ-CD],90 ± 15,125 ± 10,,100 ± 10,60 ± 10,,,30 ± 3,,
acetylated-β-CD [Ac-β-CD],150 ± 15,100 ± 14,240 ± 20 M⁻¹,310 ± 30,220 ± 20,,,290 ± 30,380 ± 30,
carboxyethylated-β-CD [CE-β-CD],590 ± 40,150 ± 10,,,400 ± 30,,,975 ± 95,,430 ± 25
carboxymethylated-α-CD [CM-α-CD],150 ± 15,75 ± 9,340 ± 20 M⁻¹,240 ± 20,90 ± 20,90 ± 15,150 ± 15,110 ± 12,90 ± 12,110 ± 20
